Test results published in patent US20240132463A1, “SUBSTITUTED N-(2-(2,6-DIOXOPIPERIDIN-3-YL)-1,3-DIOXOISOINDOLIN-5-YL)ARYLSULFONAMIDE ANALOGS AS MODULATORS OF CEREBLON PROTEIN” (ST. JUDE CHILDREN'S RESEARCH HOSPITAL, INC., priority 2020, published 2024).

Columns and labels:
6×His-CRBN-DDB1 protein = 6×His-CRBN-DDB1 protein (Homo sapiens (Human), UniProt Q96SW2); experiment: CRBN fluorescence polarization assay; type: binding; details: cereblon binding, class symbols; read-out: CRBN FP IC50
Description: 6×His-CRBN-DDB1 protein (200 nM) and Cy5-O-Len probe (30 nM) were combined in 20 mM HEPES pH 7, 150 mM NaCl, 0.005% Tween-20 assay buffer. […] The plates were incubated in the dark for 1 hour at room temperature and then read on an Envision plate reader (PerkinElmer, Massachusetts, USA).

GSPT1 HiBiT tag protein = GSPT1 HiBiT tag protein (Homo sapiens (Human), UniProt P15170+Q96SW2); experiment: hGSPT1 HiBiT assay; type: cell-based; details: HEK293 hGSPT1 HiBiT cells, 4 hrs incubation; read-out: GSPT1 HiBit EC50
Chain of GSPT1 HiBiT tag protein (P15170 whole entry): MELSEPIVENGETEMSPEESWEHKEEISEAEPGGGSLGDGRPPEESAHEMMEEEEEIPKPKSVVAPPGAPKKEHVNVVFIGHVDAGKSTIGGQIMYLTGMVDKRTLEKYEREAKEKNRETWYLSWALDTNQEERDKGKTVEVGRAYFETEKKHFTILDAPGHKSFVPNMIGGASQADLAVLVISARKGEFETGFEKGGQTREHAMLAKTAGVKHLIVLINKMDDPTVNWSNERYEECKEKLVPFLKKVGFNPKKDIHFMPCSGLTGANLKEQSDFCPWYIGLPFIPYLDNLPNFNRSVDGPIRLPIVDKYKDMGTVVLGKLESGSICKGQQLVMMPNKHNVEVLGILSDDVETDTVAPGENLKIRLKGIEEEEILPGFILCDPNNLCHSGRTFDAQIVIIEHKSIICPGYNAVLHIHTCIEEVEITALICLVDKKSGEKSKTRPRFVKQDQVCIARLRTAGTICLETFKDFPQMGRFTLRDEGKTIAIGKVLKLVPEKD
Chain of GSPT1 HiBiT tag protein (Q96SW2 whole entry): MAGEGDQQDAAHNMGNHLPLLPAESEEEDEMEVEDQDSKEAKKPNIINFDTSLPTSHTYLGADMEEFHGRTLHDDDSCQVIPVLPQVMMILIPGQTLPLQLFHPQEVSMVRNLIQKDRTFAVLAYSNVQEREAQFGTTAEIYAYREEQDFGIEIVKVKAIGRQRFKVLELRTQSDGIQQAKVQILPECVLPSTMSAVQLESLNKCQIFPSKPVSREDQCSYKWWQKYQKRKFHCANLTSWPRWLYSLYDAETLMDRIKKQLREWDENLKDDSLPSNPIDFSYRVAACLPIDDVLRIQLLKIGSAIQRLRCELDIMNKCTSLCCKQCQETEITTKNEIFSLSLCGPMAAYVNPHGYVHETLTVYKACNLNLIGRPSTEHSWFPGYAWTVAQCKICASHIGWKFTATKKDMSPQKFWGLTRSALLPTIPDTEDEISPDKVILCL
Chain of GSPT1 HiBiT tag protein (Q16531 whole entry partner): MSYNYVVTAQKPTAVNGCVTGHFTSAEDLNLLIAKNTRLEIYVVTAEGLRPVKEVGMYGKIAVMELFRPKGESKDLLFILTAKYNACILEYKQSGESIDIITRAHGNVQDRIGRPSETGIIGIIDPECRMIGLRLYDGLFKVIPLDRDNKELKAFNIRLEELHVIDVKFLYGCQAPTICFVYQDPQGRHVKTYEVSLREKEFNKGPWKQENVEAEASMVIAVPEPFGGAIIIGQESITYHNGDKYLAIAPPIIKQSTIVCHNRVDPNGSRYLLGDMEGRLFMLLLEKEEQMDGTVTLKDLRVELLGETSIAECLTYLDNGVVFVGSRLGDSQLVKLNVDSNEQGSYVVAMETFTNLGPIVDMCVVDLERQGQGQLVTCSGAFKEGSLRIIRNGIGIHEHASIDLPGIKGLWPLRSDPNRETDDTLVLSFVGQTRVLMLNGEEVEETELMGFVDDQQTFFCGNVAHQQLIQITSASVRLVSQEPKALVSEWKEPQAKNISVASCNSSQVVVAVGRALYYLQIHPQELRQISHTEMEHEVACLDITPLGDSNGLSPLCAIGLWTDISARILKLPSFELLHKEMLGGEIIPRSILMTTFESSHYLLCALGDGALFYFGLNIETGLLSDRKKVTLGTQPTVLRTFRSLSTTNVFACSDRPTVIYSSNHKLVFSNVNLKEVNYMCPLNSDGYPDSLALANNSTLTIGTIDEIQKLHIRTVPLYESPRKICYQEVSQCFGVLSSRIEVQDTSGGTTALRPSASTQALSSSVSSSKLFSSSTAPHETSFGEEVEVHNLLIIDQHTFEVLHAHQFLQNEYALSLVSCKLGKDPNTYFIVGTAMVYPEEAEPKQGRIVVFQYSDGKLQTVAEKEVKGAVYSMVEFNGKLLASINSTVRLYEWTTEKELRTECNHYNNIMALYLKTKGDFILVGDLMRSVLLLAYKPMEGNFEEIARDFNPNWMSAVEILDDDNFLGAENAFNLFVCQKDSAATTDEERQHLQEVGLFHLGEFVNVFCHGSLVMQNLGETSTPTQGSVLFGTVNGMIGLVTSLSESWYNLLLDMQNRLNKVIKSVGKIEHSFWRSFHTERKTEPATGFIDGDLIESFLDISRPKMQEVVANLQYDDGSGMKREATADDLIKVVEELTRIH
Description: hGSPT1 HiBiT cell line. HEK293_hGSPT1_HiBiT tagged cells were generated using CRISPR-Cas12a technology. Briefly, ˜400,000 HEK293 cells were transiently co-transfecting with precomplexed ribonuclear proteins (RNPs) consisting of […] of crRNA (IDT), 62 pmol of Cas12a protein (IDT), 3 ug of ssODN donor (IDT; AltR™ modifications), 78 pmol of electroporation enhancer (IDT), and 200 ng of pMaxGFP (Lonza). The transfection was performed via nucleofection (Lonza, 4D-Nucleofector™ X-unit) using solution P3 and program CM-130 in a small (20 ul) cuvette according to the manufacturer's recommended protocol. Five days post-nucleofection, cells were single cell sorted for GFP+(transfected) cells by FACs in 96-well plates and clonally selected. Clones were screened and verified for the desired modification via targeted deep sequencing using gene specific primers with partial Illumina adapter overhangs as previously described.^58 In brief, clonal cell pellets were harvested, lysed and used to generate gene specific amplicons with partial Illumina adapters in PCR #1. Amplicons were indexed in PCR #2 and pooled with other targeted amplicons for other loci to create sequence diversity. Additionally, 10% PhiX Sequencing Control V3 (Illumina) was added to the pooled amplicon library prior to running the sample on an Miseq Sequencer System (Illumina) to generate paired 2×250 bp reads. […] Editing construct sequences and screening primers are listed below in Table 4.
hGSPT1 HiBiT assay. […] After 4 hrs incubation, the level of GSPT1 HiBiT tag protein was evaluated using Nano-Glo® HiBiT Lytic Detection System (Promega) according to the manufacturer's instruction.

Chain of 6×His-CRBN-DDB1 protein (Q96SW2 whole entry): as the sequence (Q96SW2 whole entry) above
Chain of 6×His-CRBN-DDB1 protein (Q16531 whole entry partner): as the sequence (Q16531 whole entry partner) above

IC50 (6×His-CRBN-DDB1 protein) | DC50 (GSPT1 HiBiT tag protein) | Structure (SMILES)
< 1 µM | < 1 µM | O=C1CCC(N2C(=O)c3ccc(NS(=O)(=O)c4ccccc4Br)cc3C2=O)C(=O)N1 (stereo not drawn) [Compound 98, 2-bromo-N-(2-(2,6-dioxopiperidin-3-yl)-1,3-dioxoisoindolin-5-yl)benzenesulfonamide]
< 1 µM | > 10 µM | O=C1CCC(N2C(=O)c3ccc(NS(=O)(=O)c4ccc5ccccc5c4)cc3C2=O)C(=O)N1 (stereo not drawn) [Compound 63, N-(2-(2,6-dioxopiperidin-3-yl)-1,3-dioxoisoindolin-5-yl)naphthalene-2-sulfonamide]
 | > 10 µM | O=C1CCC(N2C(=O)c3ccc(NS(=O)(=O)c4ccc(Cl)c(C(F)(F)F)c4)cc3C2=O)C(=O)N1 (stereo not drawn) [Compound 70, 4-chloro-N-(2-(2,6-dioxopiperidin-3-yl)-1,3-dioxoisoindolin-5-yl)-3-(trifluoromethyl)benzenesulfonamide]
1 to 10 µM | > 10 µM | COc1ccc(Br)cc1S(=O)(=O)Nc1ccc2c(c1)C(=O)N(C1CCC(=O)NC1=O)C2=O (stereo not drawn) [Compound 78, 5-bromo-N-(2-(2,6-dioxopiperidin-3-yl)-1,3-dioxoisoindolin-5-yl)-2-methoxybenzenesulfonamide]
1 to 10 µM | > 10 µM | O=C1CCC(N2C(=O)c3ccc(NS(=O)(=O)c4ccc(F)c(F)c4)cc3C2=O)C(=O)N1 (stereo not drawn) [Compound 76]
1 to 10 µM | > 10 µM | O=C1CCC(N2C(=O)c3ccc(NS(=O)(=O)c4ccc(O)cc4)cc3C2=O)C(=O)N1 (stereo not drawn) [Compound 92, N-(2-(2,6-dioxopiperidin-3-yl)-1,3-dioxoisoindolin-5-yl)-4-hydroxybenzenesulfonamide]
< 1 µM | > 10 µM | O=C1CCC(N2C(=O)c3ccc(NS(=O)(=O)c4cc5ccccc5s4)cc3C2=O)C(=O)N1 (stereo not drawn) [Compound 87, N-(2-(2,6-dioxopiperidin-3-yl)-1,3-dioxoisoindolin-5-yl)benzo[b]thiophene-2-sulfonamide]
< 1 µM |  | COc1ccc(S(=O)(=O)Nc2ccc3c(c2)CN(C2CCC(=O)NC2=O)C3=O)cc1 (stereo not drawn) [Compound 40, N-(2-(2,6-dioxopiperidin-3-yl)-1-oxoisoindolin-5-yl)-4-methoxybenzenesulfonamide]
< 1 µM |  | O=C1CCC(N2Cc3cc(NS(=O)(=O)c4cccc(OC(F)(F)F)c4)ccc3C2=O)C(=O)N1 (stereo not drawn) [Compound 43, N-(2-(2,6-dioxopiperidin-3-yl)-1-oxoisoindolin-5-yl)-3-(trifluoromethoxy)benzenesulfonamide]
< 1 µM |  | O=C1CCC(N2Cc3cc(NS(=O)(=O)c4ccccc4C(F)(F)F)ccc3C2=O)C(=O)N1 (stereo not drawn) [Compound 44, N-(2-(2,6-dioxopiperidin-3-yl)-1-oxoisoindolin-5-yl)-2-(trifluoromethyl)benzenesulfonamide]
< 1 µM |  | Cc1ccc(F)c(S(=O)(=O)Nc2ccc3c(c2)C(=O)N(C2CCC(=O)NC2=O)C3)c1 (stereo not drawn) [Compound 34, N-(2-(2,6-dioxopiperidin-3-yl)-3-oxoisoindolin-5-yl)-2-fluoro-5-methylbenzenesulfonamide]
< 1 µM |  | Cc1c(Cl)cccc1S(=O)(=O)Nc1ccc2c(c1)CN(C1CCC(=O)NC1=O)C2=O (stereo not drawn) [Compound 55, 3-chloro-N-(2-(2,6-dioxopiperidin-3-yl)-1-oxoisoindolin-5-yl)-2-methylbenzenesulfonamide]
< 1 µM |  | O=C1CCC(N2C(=O)c3ccc(NS(=O)(=O)Cc4ccc(Cl)cc4)cc3C2=O)C(=O)N1 (stereo not drawn) [Compound 57, 1-(4-chlorophenyl)-N-(2-(2,6-dioxopiperidin-3-yl)-1,3-dioxoisoindolin-5-yi)methanesulfonamide]
< 1 µM |  | N#Cc1ccc(S(=O)(=O)Nc2ccc3c(c2)C(=O)N(C2CCC(=O)NC2=O)C3=O)cc1 (stereo not drawn) [Compound 64, 4-cyano-N-(2-(2,6-dioxopiperidin-3-yl)-1,3-dioxoisoindolin-5-yl)benzenesulfonamide]
< 1 µM |  | Cc1cc(C)c(S(=O)(=O)Nc2ccc3c(c2)C(=O)N(C2CCC(=O)NC2=O)C3=O)c(C)c1 (stereo not drawn) [Compound 68, N-(2-(2,6-dioxopiperidin-3-yl)-1,3-dioxoisoindolin-5-yl)-2,4,6-trimethylbenzenesulfonamide]
< 1 µM |  | O=C1CCC(N2Cc3cc(NS(=O)(=O)c4ccc(-c5ccccc5)cc4)ccc3C2=O)C(=O)N1 (stereo not drawn) [Compound 51, N-(2-(2,6-dioxopiperidin-3-yl)-1-oxoisoindolin-5-yl)-[1,1′-bipheny]-4-sulfonamide]
< 1 µM |  | O=C1CCC(N2C(=O)c3ccc(NS(=O)(=O)c4cccc(Cl)c4Cl)cc3C2=O)C(=O)N1 (stereo not drawn) [Compound 88, 2,3-dichloro-N-(2-(2,6-dioxopiperidin-3-yl)-1,3-dioxoisoindolin-5-yl)benzenesulfonamide]

Continued, compound first:

Structure (SMILES) | IC50 (6×His-CRBN-DDB1 protein) | DC50 (GSPT1 HiBiT tag protein)
O=C1CCC(N2C(=O)c3ccc(NS(=O)(=O)c4ccc(Cl)cc4)cc3C2=O)C(=O)N1 (stereo not drawn) [Compound 16, 4-chloro-N-(2-(2,6-dioxopiperidin-3-yl)-1,3-dioxoisoindolin-5-yl)benzenesulfonamide] | < 1 µM | > 10 µM
Cc1ccccc1S(=O)(=O)Nc1ccc2c(c1)C(=O)N(C1CCC(=O)NC1=O)C2=O (stereo not drawn) [Compound 15, N-(2-(2,6-dioxopiperidin-3-yl)-1,3-dioxoisoindolin-5-yl)-2-methylbenzenesulfonamide] | < 1 µM | 1 to 10 µM
O=C1CCC(N2C(=O)c3ccc(NS(=O)(=O)c4cccc(Cl)c4)cc3C2=O)C(=O)N1 (stereo not drawn) [Compound 95, 3-chloro-N-(2-(2,6-dioxopiperidin-3-yl)-1,3-dioxoisoindolin-5-yl)benzenesulfonamide] | < 1 µM | > 10 µM
O=C1CCC(N2C(=O)c3ccc(NS(=O)(=O)c4ccccc4C(F)(F)F)cc3C2=O)C(=O)N1 (stereo not drawn) [Compound 99, N-(2-(2,6-dioxopiperidin-3-yl)-1,3-dioxoisoindolin-5-yl)-2-(trifluoromethyl)benzenesulfonamide] | < 1 µM | < 1 µM
Cc1ccc(S(=O)(=O)Nc2ccc3c(c2)C(=O)N(C2CCC(=O)NC2=O)C3=O)cc1 (stereo not drawn) [Compound 21, N-(2-(2,6-dioxopiperidin-3-yl)-1,3-dioxoisoindolin-5-yl)-4-methylbenzenesulfonamide] | 1 to 10 µM | > 10 µM
O=C1CCC(N2C(=O)c3ccc(NS(=O)(=O)c4ccc(F)cc4)cc3C2=O)C(=O)N1 (stereo not drawn) [Compound 12, N-(2-(2,6-dioxopiperidin-3-yl)-1,3-dioxoisoindolin-5-yl)-4-fluorobenzenesulfonamide] | < 1 µM | > 10 µM
O=C1CCC(N2C(=O)c3ccc(NS(=O)(=O)c4ccc(OC(F)(F)F)cc4)cc3C2=O)C(=O)N1 (stereo not drawn) [Compound 96] | < 1 µM | > 10 µM
COc1ccccc1S(=O)(=O)Nc1ccc2c(c1)C(=O)N(C1CCC(=O)NC1=O)C2=O (stereo not drawn) [Compound 100, N-(2-(2,6-dioxopiperidin-3-yl)-1,3-dioxoisoindolin-5-yl)-2-methoxybenzenesulfonamide] | < 1 µM | > 10 µM
O=C1CCC(N2Cc3ccc(NS(=O)(=O)c4ccc(F)c(Cl)c4)cc3C2=O)C(=O)N1 (stereo not drawn) [Compound 31, 3-chloro-N-(2-(2,6-dioxopiperidin-3-yl)-3-oxoisoindolin-5-yl)-4-fluorobenzenesulfonamide] | 1 to 10 µM | 
COc1ccc(S(=O)(=O)Nc2ccc3c(c2)C(=O)N(C2CCC(=O)NC2=O)C3=O)cc1 (stereo not drawn) [Compound 14, N-(2-(2,6-dioxopiperidin-3-yl)-1,3-dioxoisoindolin-5-yl)-4-methoxybenzenesulfonamide] | < 1 µM | 
O=C1CCC(N2C(=O)c3ccc(NS(=O)(=O)c4ccc(C(F)(F)F)cc4)cc3C2=O)C(=O)N1 (stereo not drawn) [Compound 8, N-(2-(2,6-dioxopiperidin-3-yl)-1,3-dioxoisoindolin-5-yl)-4-(trifluoromethyl)benzenesulfonamide] |  | > 10 µM
CC(=O)Nc1ccc(S(=O)(=O)Nc2ccc3c(c2)C(=O)N(C2CCC(=O)NC2=O)C3=O)cc1 (stereo not drawn) [Compound 13, N-(4-(N-(2-(2,6-dioxopiperidin-3-yl)-1,3-dioxoisoindolin-5-yl)sulfamoyl)phenyl)acetamide] | < 1 µM | 
O=C1CCC(N2C(=O)c3ccc(NS(=O)(=O)c4cc(Cl)cc(Cl)c4)cc3C2=O)C(=O)N1 (stereo not drawn) [Compound 6, 3,5-dichloro-N-(2-(2,6-dioxopiperidin-3-yl)-1,3-dioxoisoindolin-5-yl)benzenesulfonamide] | < 1 µM | 
O=C1CCC(N2Cc3ccc(NS(=O)(=O)c4ccc(F)cc4)cc3C2=O)C(=O)N1 (stereo not drawn) [Compound 23, N-(2-(2,6-dioxopiperidin-3-yl)-3-oxoisoindolin-5-yl)-4-fluorobenzenesulfonamide] | < 1 µM | 
